In the supplement of paper PMC10307832:

Key:
Assay in all cases: relative viability (nuclei count vs DMSO), 5 days (fraction); higher = more cells survive
AZD6482 + Phenformin = compound: Cc1cc([C@@H](C)Nc2ccccc2C(=O)O)c2nc(N3CCOCC3)cc(=O)n2c1 [AZD6482] + N=C(N)NC(=N)NCCc1ccccc1 [Phenformin] (partner 250 µM)
How it was run: (§1)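 A single step with final 0.05% Triton X-100, 1% formaldehyde and 1 ug/ml Hoechst fixed the cells and stained nuclei 5 days after treatment. Lung cancer cell lines in 1536-well plates had been treated by pin tool the day after seeding with one drug alone or a fixed anchor-drug dose plus five library-drug doses (not always all listed) in √10 steps, and nuclei were counted on 4× images. Relative viability is the ratio of nuclei in treated wells to nuclei in vehicle wells, taken as the median of duplicate plates.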

[1] = compound: COc1cc2nc(N3CCCN(C)CC3)nc(NC3CCN(Cc4ccccc4)CC3)c2cc1OC + Cc1cc(Nc2cc(N3CCN(C)CC3)nc(Sc3ccc(NC(=O)C4CC4)cc3)n2)n[nH]1 [Tozasertib] (partner 0.1 µM)
How it was run: as §1

[2] = compound: COc1cc2nc(N3CCCN(C)CC3)nc(NC3CCN(Cc4ccccc4)CC3)c2cc1OC + Cc1nc(Nc2ncc(C(=O)Nc3c(C)cccc3Cl)s2)cc(N2CCN(CCO)CC2)n1 [Dasatinib] (partner 0.075 µM)
How it was run: as §1

[3] = compound: COc1cc2nc(N3CCCN(C)CC3)nc(NC3CCN(Cc4ccccc4)CC3)c2cc1OC + COc1cccc2cc(-c3nc([C@H]4CC[C@H](C(=O)O)CC4)n4ncnc(N)c34)[nH]c12 [OSI-027] (partner 0.5 µM)
How it was run: as §1

UMC-11
relative viability (AZD6482 + Phenformin; first compound 0.08 µM): 0.309 | relative viability (AZD6482 + Phenformin; first compound 0.253 µM): 0.292 | relative viability (AZD6482 + Phenformin; first compound 0.8 µM): 0.324 | relative viability (AZD6482 + Phenformin; first compound 2.53 µM): 0.293 | relative viability (AZD6482 + Phenformin; first compound 8 µM): 0.255 | relative viability ([1]; first compound 0.2 µM): 0.202 | relative viability ([1]; first compound 0.6325 µM): 0.214 | relative viability ([1]; first compound 2 µM): 0.212 | relative viability ([1]; first compound 6.325 µM): 0.2 | relative viability ([2]; first compound 0.2 µM): 0.464 | relative viability ([2]; first compound 0.6325 µM): 0.435 | relative viability ([2]; first compound 2 µM): 0.468 | relative viability ([2]; first compound 6.325 µM): 0.286 | relative viability ([3]; first compound 0.2 µM): 0.534 | relative viability ([3]; first compound 0.6325 µM): 0.461 | relative viability ([3]; first compound 2 µM): 0.398 | relative viability ([3]; first compound 6.325 µM): 0.284
